Source: ChEMBL document CHEMBL1201862, “PubChem BioAssay data set” (2004)
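Results reflect a 48-hour exposure of cells in 96-well plates to compound at five concentrations. GI50: concentration for 50% inhibition of growth.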 Calls of active or inactive are those of the source. No stated cut-off is given here; in the data, active = GI50 up to about 1.1 µM and inactive = higher.

Key:
Test in all cases: growth of human tumour cells (NCI), 48 h
[1] = system: RPMI-8226
[2] = system: XF498
[3] = system: SR
[4] = system: SK-OV-3
[5] = system: SK-MEL-28
[6] = system: OVCAR-4
[7] = system: COLO 205
[8] = system: UACC-257
[9] = system: MOLT-4
[10] = system: SNB-75
[11] = system: DLD-1
[12] = system: NCI-H226
[13] = system: EKVX
[14] = system: HCT-116
[15] = system: LXFL 529
[16] = system: U-251
[17] = system: TK-10
[18] = system: A549
[19] = system: K562
[20] = system: DMS-114
[21] = system: CAKI-1
[22] = system: SF-268
[23] = system: SF-539
[24] = system: HOP-62
[25] = system: NCI-H460
[26] = system: HT-29
[27] = system: HCT-15
[28] = system: KM-20L2
[29] = system: ACHN
[30] = system: IGROV-1
[31] = system: A498
[32] = system: Malme-3M
[33] = system: UO-31
[34] = system: SN12C
[35] = system: CCRF-CEM
[36] = system: OVCAR-3
[37] = system: KM12
[38] = system: SW-620
[39] = system: SK-MEL-2
[40] = system: M14
[41] = system: SNB-19
[42] = system: UACC-62
[43] = system: OVCAR-8
[44] = system: SF-295
[45] = system: SK-MEL-5
[46] = system: HOP-92
[47] = system: NCI-H522
[48] = system: HL-60
[49] = system: RXF 393
[50] = system: HCC 2998
[51] = system: OVCAR-5
[52] = system: SNB-78
[53] = system: NCI-H23
[54] = system: M19-MEL
[55] = system: 786-0
[56] = system: HOP-18
[57] = system: LOX IMVI
[58] = system: DMS-273

In the case of `[O-]c1c2c(nn1-c1ccc(F)cc1)c1ccccc1c[n+]2Cc1ccccc1`, the GI50 [1] is reported as 3.34 µM (inactive), the GI50 [2] is reported as 19.2 µM (inactive) and the GI50 [3] is reported as 1.55 µM (inactive). For the same compound, the GI50 [4] was 14.6 µM (inactive), the GI50 [5] was 15.3 µM (inactive) and the GI50 [6] was 19.3 µM (inactive). For the same compound, the GI50 [7] was 1.76 µM (inactive), the GI50 [8] was 11.5 µM (inactive) and the GI50 [9] was 5.45 µM (inactive). The GI50 [10] was 23.3 µM (inactive), the GI50 [11] was 11 µM (inactive) and the GI50 [12] was 16.6 µM (inactive). The GI50 [13] was 19.4 µM (inactive), the GI50 [14] was 16.4 µM (inactive) and the GI50 [15] was 0.448 µM (active). For the same compound, the GI50 [16] was 16.4 µM (inactive), the GI50 [17] was 24.6 µM (inactive) and the GI50 [18] was 12.8 µM (inactive). The GI50 [19] was 0.687 µM (active), the GI50 [20] was 10.8 µM (inactive) and the GI50 [21] was 18.8 µM (inactive). For the same compound, the GI50 [22] was 18.9 µM (inactive), the GI50 [23] was 3.26 µM (inactive) and the GI50 [24] was 16.5 µM (inactive). The GI50 [25] was 10.5 µM (inactive), the GI50 [26] was 10.2 µM (inactive) and the GI50 [27] was 0.581 µM. The GI50 [28] was 11.6 µM (inactive), the GI50 [29] was 1.77 µM (inactive) and the GI50 [30] was 11.1 µM (inactive). For the same compound, the GI50 [31] was 30.9 µM (inactive), the GI50 [32] was 11.7 µM (inactive) and the GI50 [33] was 10.2 µM (inactive). For the same compound, the GI50 [34] was 16.4 µM (inactive), the GI50 [35] was 0.401 µM (active) and the GI50 [36] was 7.69 µM (inactive). The GI50 [37] was 1.43 µM (inactive), the GI50 [38] was 14.8 µM (inactive) and the GI50 [39] was 0.501 µM (active). The GI50 [40] was 1.79 µM (inactive), the GI50 [41] was 30.8 µM (inactive) and the GI50 [42] was 2 µM (inactive). The GI50 [43] was 12.8 µM (inactive), the GI50 [44] was 14.6 µM (inactive) and the GI50 [45] was 3.96 µM (inactive). For the same compound, the GI50 [46] was 18.9 µM (inactive), the GI50 [47] was 4.12 µM (inactive) and the GI50 [48] was 0.327 µM (active). The GI50 [49] was 15.1 µM (inactive), the GI50 [50] was 11.7 µM (inactive) and the GI50 [51] was 11.9 µM (inactive). For the same compound, the GI50 [52] was 1.96 µM (inactive) and the GI50 [53] was 16.3 µM (inactive).

For `O=[N+]([O-])c1ccc(C2CC(c3ccc(NCc4nc5ccccc5[nH]4)cc3)=NO2)cc1` (stereo not given), the GI50 [1] was 18.5 µM (inactive), the GI50 [3] was 4.93 µM (inactive) and the GI50 [4] was > 100 µM (inactive). For the same compound, the GI50 [5] was > 100 µM (inactive), the GI50 [6] was 14.3 µM (inactive) and the GI50 [7] was > 100 µM (inactive). The GI50 [9] was 6.92 µM (inactive), the GI50 [10] was > 100 µM (inactive) and the GI50 [11] was 45 µM (inactive). The GI50 [54] was 33.7 µM (inactive), the GI50 [14] was 27.4 µM (inactive) and the GI50 [15] was 16.4 µM (inactive). For the same compound, the GI50 [16] was 36.4 µM (inactive), the GI50 [17] was 89.3 µM (inactive) and the GI50 [18] was 98.2 µM (inactive). For the same compound, the GI50 [19] was 21.1 µM (inactive), the GI50 [20] was 11.4 µM (inactive) and the GI50 [21] was > 100 µM (inactive). For the same compound, the GI50 [22] was > 100 µM (inactive), the GI50 [23] was > 100 µM (inactive) and the GI50 [24] was > 100 µM (inactive). The GI50 [25] was 15.6 µM (inactive), the GI50 [26] was 38.5 µM (inactive) and the GI50 [27] was 30.7 µM. For the same compound, the GI50 [29] was 33.3 µM (inactive), the GI50 [55] was 39.6 µM (inactive) and the GI50 [30] was 75.7 µM (inactive). For the same compound, the GI50 [31] was 15.3 µM (inactive), the GI50 [32] was 34.4 µM (inactive) and the GI50 [33] was > 100 µM (inactive). The GI50 [34] was 30.7 µM (inactive), the GI50 [35] was 15.6 µM (inactive) and the GI50 [36] was 3.56 µM (inactive). The GI50 [37] was 21.1 µM (inactive), the GI50 [38] was 33.5 µM (inactive) and the GI50 [39] was > 100 µM (inactive). The GI50 [40] was 33.5 µM (inactive), the GI50 [41] was 37.3 µM (inactive) and the GI50 [42] was 70.3 µM (inactive). The GI50 [43] was 37.7 µM (inactive), the GI50 [44] was 21.8 µM (inactive) and the GI50 [56] was > 100 µM (inactive). The GI50 [45] was 9.04 µM (inactive), the GI50 [46] was > 100 µM (inactive) and the GI50 [47] was 27.9 µM (inactive). For the same compound, the GI50 [48] was 20.4 µM (inactive), the GI50 [49] was > 100 µM (inactive) and the GI50 [50] was 85.5 µM (inactive). The GI50 [51] was > 100 µM (inactive), the GI50 [57] was 35.5 µM (inactive) and the GI50 [53] was 34.6 µM (inactive). For the same compound, the GI50 [58] was 32.1 µM (inactive).
